{"source": "PubChem BioAssay AID1421", "about": "(Emory University Molecular Libraries Screening Center, 2008)", "note": "Values joined by “and” are separate entries in the source; they are usually repeats but may differ in a detail not shown here. Equal values may be shown once. Active and inactive are the calls of the source. No rule for the calls is given here.", "data": [{"target": "Prostaglandin E2 receptor EP2 subtype (Homo sapiens) (UniProt P43116)", "sequence (P43116 whole entry, looked up)": "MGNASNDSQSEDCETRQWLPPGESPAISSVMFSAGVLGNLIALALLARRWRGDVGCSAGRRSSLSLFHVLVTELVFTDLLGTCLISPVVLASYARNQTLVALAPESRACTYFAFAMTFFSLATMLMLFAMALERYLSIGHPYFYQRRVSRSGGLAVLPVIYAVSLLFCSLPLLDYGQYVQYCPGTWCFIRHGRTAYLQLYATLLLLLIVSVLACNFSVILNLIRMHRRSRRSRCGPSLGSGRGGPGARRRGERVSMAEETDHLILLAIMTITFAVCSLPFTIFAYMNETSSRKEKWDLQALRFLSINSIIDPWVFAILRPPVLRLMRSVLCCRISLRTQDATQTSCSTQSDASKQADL", "experiment": "EP2 receptor modulators, dose response, cell-based, human EP2, PGE2 EC50 shift (AID 1421)", "details": "EP2-expressing cells, PGE2 EC50 shift by compound", "values": [{"smiles": "Cc1ccc(C(=O)Nc2ccccc2N2CCCCC2)cc1[N+](=O)[O-]", "outcome": "active"}, {"smiles": "O=c1c2ccccc2nc2n1C1(CCCCC1)Cc1ccccc1-2", "outcome": "active"}, {"smiles": "COc1cccc2cc(/C(=N/O)c3ccccc3)oc12", "outcome": "active"}, {"smiles": "OC(COc1ccccc1)Cn1c2ccccc2c2ccccc21", "note": "(configuration not stated)", "outcome": "active"}, {"smiles": "CC(C)OC(=O)c1c(NC(=O)c2ccco2)sc2c1CCCCC2", "outcome": "active"}, {"smiles": "CCCCCc1ccc(-c2ccc(=O)[nH]n2)cc1", "outcome": "active"}, {"smiles": "Cc1nc2c(c(C)nn2-c2ccccc2)c(C)c1Cl", "outcome": "active"}, {"smiles": "CC(C)(C)C1CCC(=NNc2ccc(S(N)(=O)=O)cc2[N+](=O)[O-])CC1", "note": "(configuration not stated)", "outcome": "active"}, {"smiles": "Cc1cc(C)cc(C(=N)c2ccccc2Cc2cccc3ccccc23)c1", "outcome": "active"}, {"smiles": "CCc1nc(N2CCCCC2)c2oc3ccccc3c2n1", "outcome": "active"}, {"smiles": "CCCc1cc(-c2n[nH]c(=S)n2C(C)c2ccccc2)cs1", "note": "(configuration not stated)", "outcome": "active"}]}, {"target": "Prostaglandin E2 receptor EP2 subtype (Homo sapiens) (UniProt P43116)", "experiment": "EP2 receptor modulators, dose response, cell-based, human EP2, PGE2 EC50 shift (AID 1421)", "details": "EP2-expressing cells, PGE2 EC50 shift by compound; measured here: PGE2 EC50 at 6.7 uM compound", "values": [{"smiles": "Cc1ccc(C(=O)Nc2ccccc2N2CCCCC2)cc1[N+](=O)[O-]", "PGE2 EC50 with compound": "0.66 nM"}, {"smiles": "Cc1ccc(-c2nnn(CC(=O)N(Cc3cccs3)C(C(=O)NC3CCCC3)c3ccncc3)n2)cc1", "note": "(configuration not stated)", "PGE2 EC50 with compound": "0.72 nM"}, {"smiles": "O=C(O)c1ccc(CNCc2cccc(Cl)c2Cl)cc1", "PGE2 EC50 with compound": "0.88 nM"}, {"smiles": "Cn1c(=O)c(NCCc2ccccc2)c2c3c(cccc31)C(=O)c1ccccc1-2", "PGE2 EC50 with compound": "0.31 nM"}, {"smiles": "CCOC1(OCC)C(c2ccc(N)cc2)C(C#N)(C#N)C1(OCC)OCC", "note": "(configuration not stated)", "PGE2 EC50 with compound": "0.31 nM"}, {"smiles": "O=C(O)c1csc(N/N=C/c2ccc(Br)cc2)n1", "PGE2 EC50 with compound": "0.89 nM"}, {"smiles": "CSc1nnc(-c2cc3c(s2)-c2ccccc2CC3)o1", "PGE2 EC50 with compound": "1.15 nM"}, {"smiles": "O=C(O)[C@@H]1[C@H](C(=O)O)[C@@H](C(=O)O)C[C@H]1C(=O)O", "PGE2 EC50 with compound": "0.91 nM"}, {"smiles": "c1ccc2c(c1)OCC(c1csc3ncnc(N4CCCCC4)c13)O2", "note": "(configuration not stated)", "PGE2 EC50 with compound": "2.54 nM"}, {"smiles": "COc1ccc(-c2nc3ccccc3n2Cc2ccccc2)cc1", "PGE2 EC50 with compound": "1.05 nM"}, {"smiles": "CCc1oc2ccccc2c1C(=O)c1cc(Br)c(O)c(Br)c1", "PGE2 EC50 with compound": "1.02 nM and 0.68 nM"}, {"smiles": "c1ccc(Cc2nc3ccccc3n2Cc2ccccc2)cc1", "PGE2 EC50 with compound": "0.81 nM"}, {"smiles": "CCn1nnnc1SCC(=O)Nc1cccc(C)n1", "PGE2 EC50 with compound": "1.44 nM"}, {"smiles": "Cc1ccc(/C=N/N(Cc2ccccc2)c2ccccc2)o1", "PGE2 EC50 with compound": "0.92 nM"}, {"smiles": "CCOC(=O)c1c(NC(=O)c2cccnc2)sc(C)c1C", "PGE2 EC50 with compound": "1.25 nM"}, {"smiles": "C=CCc1cccc(C=Nc2cc(Br)ccc2O)c1O", "PGE2 EC50 with compound": "0.89 nM"}, {"smiles": "CSc1nc(Oc2ccc(F)cc2)c2ccccc2n1", "PGE2 EC50 with compound": "0.61 nM"}, {"smiles": "C=CCSc1nc2ccccc2c(=O)n1Cc1ccco1", "PGE2 EC50 with compound": "0.91 nM"}, {"smiles": "O=c1c2ccccc2nc2n1C1(CCCCC1)Cc1ccccc1-2", "PGE2 EC50 with compound": "0.95 nM"}, {"smiles": "COc1cccc2cc(/C(=N/O)c3ccccc3)oc12", "PGE2 EC50 with compound": "1.51 nM"}, {"smiles": "C/C(=N\\N(Cc1ccccc1)c1ccccc1)c1ccncc1", "PGE2 EC50 with compound": "1.48 nM"}, {"smiles": "COc1ccc(C(=O)O)cc1NC(=S)NC(=O)c1ccc(-c2ccc(Cl)cc2)o1", "PGE2 EC50 with compound": "0.36 nM"}, {"smiles": "OC(COc1ccccc1)Cn1c2ccccc2c2ccccc21", "note": "(configuration not stated)", "PGE2 EC50 with compound": "1.4 nM"}, {"smiles": "CN(/N=C/C=C/c1ccccc1)C1=NS(=O)(=O)c2ccccc21", "PGE2 EC50 with compound": "0.68 nM"}, {"smiles": "COC(=O)CSc1nc(-c2ccccc2)nc2ccccc12", "PGE2 EC50 with compound": "1.02 nM"}, {"smiles": "CC(C)OC(=O)c1c(NC(=O)c2ccco2)sc2c1CCCCC2", "PGE2 EC50 with compound": "0.74 nM"}, {"smiles": "CC1(C)Cc2nc3sc4c(SCC(=O)NC(c5ccccc5)c5ccccc5)ncnc4c3cc2CO1", "PGE2 EC50 with compound": "1.48 nM"}, {"smiles": "CS(=O)(=O)N(Cc1ccccc1)c1ccccc1C(=O)Nc1ccccc1C(=O)NCc1ccco1", "PGE2 EC50 with compound": "3.04 nM"}, {"smiles": "CC(C)c1ccc(/C=N/Nc2cc(N3CCOCC3)nc(N3CCOCC3)n2)cc1", "PGE2 EC50 with compound": "0.98 nM"}, {"smiles": "CCOC(=O)c1c(NC(=O)CN2C(=O)NC3(CCCCCC3)C2=O)sc(C)c1-c1ccc(C)cc1", "PGE2 EC50 with compound": "0.76 nM"}, {"smiles": "C=CCn1c(CNC(=O)c2cccs2)nnc1SCC(=O)c1ccc(Br)cc1", "PGE2 EC50 with compound": "1.83 nM"}, {"smiles": "FC(F)(F)c1cccc(/C=N/NC(=S)NC2CCCCC2)c1", "PGE2 EC50 with compound": "0.42 nM"}, {"smiles": "COc1cc(/C=C/c2ccc3cccc([N+](=O)[O-])c3n2)ccc1OCC(=O)O", "PGE2 EC50 with compound": "1.64 nM"}, {"smiles": "O=C(OCc1ccccc1Cl)c1ccccc1C(=O)c1ccccc1", "PGE2 EC50 with compound": "1.13 nM"}, {"smiles": "C=CCSc1nccc(-c2cc(Cl)sc2Cl)n1", "PGE2 EC50 with compound": "1.07 nM"}, {"smiles": "CCOc1cccc(CNc2ccc(O)cc2)c1OCc1ccccc1Cl", "PGE2 EC50 with compound": "0.62 nM"}, {"smiles": "CCC(=O)Oc1ccc2c(C)cc(=O)oc2c1C(=O)c1ccccc1", "PGE2 EC50 with compound": "1 nM"}, {"smiles": "COc1ccc2c(COC(=O)c3n[nH]c4ccccc34)cc(=O)oc2c1", "PGE2 EC50 with compound": "1.31 nM"}, {"smiles": "Cc1c(C(=O)Nc2cccc3cccnc23)oc2ccccc12", "PGE2 EC50 with compound": "0.72 nM"}, {"smiles": "O=C(Nc1ccccc1)/C(=C/c1ccccc1)c1ccccc1", "PGE2 EC50 with compound": "2.56 nM"}, {"smiles": "COc1cc2ccccc2cc1C(=O)NC(=S)Nc1cccc(C(=O)O)c1", "PGE2 EC50 with compound": "0.75 nM"}, {"smiles": "O=S(=O)(c1ccccc1)c1nc(-c2ccco2)oc1N1CCCCCC1", "PGE2 EC50 with compound": "1.21 nM"}, {"smiles": "O=C(COC(=O)c1ccccc1)Nc1ccccc1Sc1ccccc1", "PGE2 EC50 with compound": "0.83 nM"}, {"smiles": "O=C(O)CCCN1C(=O)/C(=C\\c2ccco2)SC1=S", "PGE2 EC50 with compound": "1.07 nM"}, {"smiles": "CCC1CCc2c(sc3ncnc(N4CCOCC4)c23)C1", "note": "(configuration not stated)", "PGE2 EC50 with compound": "0.81 nM"}, {"smiles": "CCOc1ccccc1NC(=O)c1ccccc1-c1nc(-c2ccccc2)no1", "PGE2 EC50 with compound": "1.14 nM"}]}]}
